Reference: patent publication US10675286B2, “Heterocyclic compounds and uses thereof” (Infinity Pharmaceuticals, Inc., priority 2014, dated 2020)

Experiments:
[1] = tested on: CT26 colon cancer; experiment: CT26 colon cancer model; assay type: in vivo, mouse; conditions: CT26 subcutaneous tumors
[2] = tested on: IL-8 induced neutrophil migration; experiment: IL-8 driven murine air pouch model; assay type: in vivo; conditions: mouse; Compound BB 0.1, 0.3, 1, 3 mg/kg; Compound AA 10, 25, about 50 mg/kg; vs vehicle
Source text: IL-8 chemoattracts and activates neutrophils.

[3] = tested on: CXCL12-induced pAKT in T-cells; experiment: CXCL12-induced pAKT in T-cells of CLL patient PBMCs; assay type: cell-based, human
Source text: There was a tight correlation between the EC50s observed in the CXCL12-induced pAKT assay and the T-cell migration assay.

[4] = Pharmacokinetics of Compound BB, single and repeat oral dose in CB6F1 female mice; assay type: in vivo, mouse; conditions: CB6F1 female mice, 2, 7.5, 15 mg/kg PO
Description: Animals were weighed daily prior to dosing. […] On subsequent dosing days, the animals' condition was noted prior to dosing; the animals were observed within 4 hours of dosing, and at the end of the day.
Samples were collected at pre-dose 0.25, 0.5, 1, 2, 4, 6 and 24 h following the first dose on day 1 and pre-dose (trough), 0.25, 0.5, 1, 2, 4, 6 and 24 h following the final dose on day 3. Animals received a single oral dose daily for 3 consecutive days. Blood was collected by retro-orbital bleeding for all time points on day 1. All other blood sampling was collected by a cardiac puncture. Blood was collected into K2EDTA tubes and placed on wet ice. Within 15 min of collection, the sample was centrifuged at 10,000 rpm at 4° C. for 10 min in a bench top centrifuge and the plasma transferred to a new microcentrifuge tube.

[5] = tested on: differentiation of myeloid cells into M2 TAMs; experiment: Murine M2 TAM differentiation (ARG1 levels); assay type: cell-based, mouse
Source text: High ARG1 (Arginase-1) levels indicate that myeloid cells are differentiating into M2 macrophages, so lower ARG1 levels relative to a control indicate interference with differentiation into M2 macrophages. Expression of Arginase-1 depletes the tumor microenvironment of arginine, thereby promoting T cell death and NK cell inhibition. Schmid et. al., Proceedings: AACR 103rd Annual Meeting 2012, Cancer Research: Apr. 15, 2012; Volume 72, Issue 8, Supplement 1. […] M2 TAMs promote cancer cell survival (FIG. 23).

[6] = tested on: bone marrow cells differentiating into MDSCs; experiment: Myeloid Derived Suppressor Cell differentiation assay (VEGF, ARG1); assay type: cell-based
Description: A similar experiment was performed on bone marrow cells differentiating into MDSCs.

[7] = tested on: M1 macrophage differentiation; experiment: M1 macrophage differentiation; assay type: cell-based; conditions: data not shown
Description: A similar experiment was performed on M1 differentiation.

[8] = tested on: 4T1 mammary carcinoma; experiment: 4T1 breast cancer model (orthotopic / subcutaneous), tumor growth and IHC; assay type: in vivo, mouse
Description: Plasma is collected for pharmokinetic (PK) analysis.
Luciferin measurements were taken twice a week.
Immunohistochemistry was performed to determine the distribution of immune cells within the tumor. In particular, CD11b myeloid cells were examined, as were regulatory vs. effector T cells (CD3, CD4, CD8, FoxP3).

[9] = Oral pharmacokinetics of Compound BB in dog; assay type: in vivo; conditions: 5 mg/kg oral
Source text: Compound BB's oral exposure is high in rat, dog and monkey. Good oral bioavailability and low clearance in rodent and non-rodent animal species results in high oral exposure.

[10] = Target organ toxicity (TOT) study in rats, 10 days oral; assay type: in vivo
Description: A target organ toxicity (TOT) study was performed in rats. […] This study assessed clinical observations/mortality, body weights, clinical pathology, toxicokinetics, and histopathology of select tissues. The tissues studied were: Adrenal gland, Bone marrow (femur), Brain, Small Intestine (including GALT), Heart, Large Intestine, Kidney, Stomach, Liver, Pancreas, Spleen, Testis, and Thymus. Doses were selected based on repeat-dose tolerability study, PK and plasma protein binding, and cellular IC50s for PI3K isoforms.

[11] = tested on: GL261-Luc; experiment: GL261-Luc murine glioblastoma subcutaneous model; assay type: in vivo, mouse; conditions: GL-261 syngeneic glioma, 15 mg/kg QD, PO
Source text: In some cases, the GL261 glioblastoma model is used. This is a syngeneic glioblastoma multiform model run subcutaneously or orthotopically, and is described in more detail in the examples provided herein. In some embodiments, the model has previously been treated with radiation therapy but there is a recurrence of the cancer. Compounds provided herein can be administered to models with a recurrence or relapse of cancer after prior treatment.

[12] = orthotopic 4T1, 7.5 mg/kg PO once daily 3 weeks

C[C@H](NC(=O)c1c(N)nn2cccnc12)c1cc2cccc(C#Cc3cnn(C)c3)c2c(=O)n1-c1ccccc1 [Compound BB]
Monocytic iMCs in tumor [1]: decreased
IL-8 induced neutrophil migration into air pouch [2]: blocks IL-8 induced neutrophil migration
Inhibition of CXCL12-induced pAKT in T-cells (FIG. 9) [3]: more strongly than a PI3K-δ inhibitor
Stability in serum (24-hour time course of unbound plasma concentration) [4]: good stability in serum
Differentiation of myeloid cells into M2 TAMs (ARG1 levels, FIG. 22) [5]: inhibited M2 TAM differentiation much more effectively than PI3K-δ inhibitor
VEGF and ARG1 in MDSC differentiation assay (FIG. 24) [6]: suppressed both VEGF (FIG. 24A) and ARG1 (FIG. 24B)
M1 macrophage differentiation [7]: did not have an observable effect
Tumor growth (FIG. 35) ([8]; 4T1, Compound BB alone 15 mg/kg once daily 2 weeks): achieved a reduction in tumor growth
CD11b+ myeloid cell staining in viable tumor regions (IHC, FIG. 37A) ([8]; 4T1 tumors, day 13, vs vehicle): decrease in CD11b+ myeloid cell staining
Total luciferase flux (FIG. 33B) [8, 12]: reduced total luciferase flux
Tumor growth (FIG. 33A) [8, 12]: reduced tumor growth
Time the anti-tumor effect was maintained after discontinuation of treatment ([8]; subcutaneous 4T1): at least 6 days
Tumor growth (FIG. 34, FIG. 36) ([8]; subcutaneous 4T1, single agent): demonstrated single agent activity
Oral exposure (plasma concentrations within 24 hours, FIG. 43) [9]: high
Histopathology, gross changes ([10]; 10 days): no significant gross changes were observed
Decrease in body weights compared to vehicle ([10]; high dose (50 mg/kg/day), 10 days): 5-8%
Histopathology, thymus ([10]; males at ≥7.5 mg/kg/day, females at 50 mg/kg/day): minimal/mild lymphoid depletion
Mortality and clinical signs ([10]; oral 10 days, any dose level): No mortality or clinical signs were observed
Tolerability ([10]; oral, 1, 7.5, 20, 50 mg/kg/day): well-tolerated for 10 days
Histopathology, spleen ([10]; primarily at doses ≥20 mg/kg/day): minimal/mild lymphoid depletion of the marginal zone and periarteriolar lymphoid sheaths (PALS)
Clinical pathology ([10]; primarily in 20 and 50 mg/kg/day groups): minimal changes in neutrophils, lymphocytes, and fibrinogen
Total flux (FIG. 47B) [11]: reduced the total flux
Tumor volume (FIG. 47A) [11]: reduced tumor volume
